Test results published in ChEMBL document CHEMBL4507319 (2021).

Columns and labels:
Conditions in all cases: Compound concentration 1000.0 nM
[1] = biological target: T1, Serine/threonine-protein kinase TAO3 (Homo sapiens) (UniProt Q9H2K8)
T1 sequence (whole entry): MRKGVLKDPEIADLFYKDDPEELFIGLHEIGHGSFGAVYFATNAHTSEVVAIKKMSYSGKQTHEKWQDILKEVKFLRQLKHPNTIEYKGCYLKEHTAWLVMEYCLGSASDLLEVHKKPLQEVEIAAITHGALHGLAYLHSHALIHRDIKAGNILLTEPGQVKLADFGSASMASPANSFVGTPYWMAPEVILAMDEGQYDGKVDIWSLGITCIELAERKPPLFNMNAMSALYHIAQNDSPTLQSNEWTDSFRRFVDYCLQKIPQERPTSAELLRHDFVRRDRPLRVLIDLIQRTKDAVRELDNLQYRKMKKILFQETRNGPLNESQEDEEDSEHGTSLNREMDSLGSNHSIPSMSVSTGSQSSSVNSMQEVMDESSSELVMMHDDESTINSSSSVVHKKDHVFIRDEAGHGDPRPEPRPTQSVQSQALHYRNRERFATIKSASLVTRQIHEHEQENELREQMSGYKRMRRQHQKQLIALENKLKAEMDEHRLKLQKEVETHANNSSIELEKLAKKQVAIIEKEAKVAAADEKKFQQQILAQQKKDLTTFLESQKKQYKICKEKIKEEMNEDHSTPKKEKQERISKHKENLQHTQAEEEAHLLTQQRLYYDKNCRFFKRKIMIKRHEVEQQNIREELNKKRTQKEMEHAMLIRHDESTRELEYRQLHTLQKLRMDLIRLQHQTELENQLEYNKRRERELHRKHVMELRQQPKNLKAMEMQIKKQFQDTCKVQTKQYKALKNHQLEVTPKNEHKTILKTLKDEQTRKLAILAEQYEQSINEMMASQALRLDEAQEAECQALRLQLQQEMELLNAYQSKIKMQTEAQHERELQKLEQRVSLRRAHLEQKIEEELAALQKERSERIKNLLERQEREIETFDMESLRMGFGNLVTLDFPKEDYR

[2] = biological target: Tyrosine-protein kinase Fyn (Homo sapiens) (UniProt P06241)
[3] = biological target: T2, Mitogen-activated protein kinase kinase kinase 5 (Homo sapiens) (UniProt Q99683)
T2 sequence (whole entry): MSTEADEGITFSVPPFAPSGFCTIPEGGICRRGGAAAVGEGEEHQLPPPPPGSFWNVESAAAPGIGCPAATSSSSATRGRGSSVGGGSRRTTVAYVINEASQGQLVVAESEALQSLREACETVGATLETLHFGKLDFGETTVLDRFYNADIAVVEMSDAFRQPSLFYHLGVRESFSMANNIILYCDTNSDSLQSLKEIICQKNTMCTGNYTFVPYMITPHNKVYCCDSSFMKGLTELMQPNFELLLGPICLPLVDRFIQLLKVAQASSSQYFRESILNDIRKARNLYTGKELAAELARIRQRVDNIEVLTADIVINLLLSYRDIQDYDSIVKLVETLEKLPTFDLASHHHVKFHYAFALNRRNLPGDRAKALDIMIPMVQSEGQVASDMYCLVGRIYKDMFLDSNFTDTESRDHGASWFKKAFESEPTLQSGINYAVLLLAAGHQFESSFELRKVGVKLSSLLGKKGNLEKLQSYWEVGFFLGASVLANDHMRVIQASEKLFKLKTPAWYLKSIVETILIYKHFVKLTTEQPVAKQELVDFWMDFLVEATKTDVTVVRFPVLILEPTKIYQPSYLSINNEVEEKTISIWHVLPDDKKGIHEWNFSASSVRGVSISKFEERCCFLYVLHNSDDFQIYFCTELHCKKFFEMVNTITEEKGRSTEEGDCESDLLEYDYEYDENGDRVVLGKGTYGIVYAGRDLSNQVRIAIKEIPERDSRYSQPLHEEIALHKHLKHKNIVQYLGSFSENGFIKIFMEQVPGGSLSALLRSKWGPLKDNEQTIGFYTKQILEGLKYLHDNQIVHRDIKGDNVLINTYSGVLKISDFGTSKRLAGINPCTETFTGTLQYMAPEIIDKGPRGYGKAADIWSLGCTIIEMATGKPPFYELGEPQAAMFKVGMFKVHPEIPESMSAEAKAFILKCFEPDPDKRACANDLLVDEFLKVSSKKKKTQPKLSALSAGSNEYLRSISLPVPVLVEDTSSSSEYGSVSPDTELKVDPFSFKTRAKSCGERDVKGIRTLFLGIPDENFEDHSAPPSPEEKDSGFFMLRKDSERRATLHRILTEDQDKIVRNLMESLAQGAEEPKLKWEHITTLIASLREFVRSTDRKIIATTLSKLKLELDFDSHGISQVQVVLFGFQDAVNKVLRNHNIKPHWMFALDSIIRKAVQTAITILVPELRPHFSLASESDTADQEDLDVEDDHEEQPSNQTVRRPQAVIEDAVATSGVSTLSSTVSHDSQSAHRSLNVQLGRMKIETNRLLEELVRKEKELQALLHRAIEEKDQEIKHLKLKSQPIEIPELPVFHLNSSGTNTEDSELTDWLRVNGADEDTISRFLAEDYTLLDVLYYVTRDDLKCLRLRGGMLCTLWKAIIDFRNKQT

[4] = system: Phosphatidylinositol 4,5-bisphosphate 3-kinase catalytic subunit alpha isoform (Homo sapiens), P42336 [E545K]
[5] = system: Phosphatidylinositol 4,5-bisphosphate 3-kinase catalytic subunit alpha isoform (Homo sapiens), P42336 [I800L]
[6] = biological target: Ribosomal protein S6 kinase alpha-3 (Homo sapiens, UniProt P51812)
[7] = biological target: Transient receptor potential cation channel subfamily M member 6 (Homo sapiens) (UniProt Q9BX84)

Measured: residual activity

Sequence of Phosphatidylinositol 4,5-bisphosphate 3-kinase catalytic subunit alpha isoform (Homo sapiens), P42336 [E545K] (P42336 whole entry E545K, canonical isoform): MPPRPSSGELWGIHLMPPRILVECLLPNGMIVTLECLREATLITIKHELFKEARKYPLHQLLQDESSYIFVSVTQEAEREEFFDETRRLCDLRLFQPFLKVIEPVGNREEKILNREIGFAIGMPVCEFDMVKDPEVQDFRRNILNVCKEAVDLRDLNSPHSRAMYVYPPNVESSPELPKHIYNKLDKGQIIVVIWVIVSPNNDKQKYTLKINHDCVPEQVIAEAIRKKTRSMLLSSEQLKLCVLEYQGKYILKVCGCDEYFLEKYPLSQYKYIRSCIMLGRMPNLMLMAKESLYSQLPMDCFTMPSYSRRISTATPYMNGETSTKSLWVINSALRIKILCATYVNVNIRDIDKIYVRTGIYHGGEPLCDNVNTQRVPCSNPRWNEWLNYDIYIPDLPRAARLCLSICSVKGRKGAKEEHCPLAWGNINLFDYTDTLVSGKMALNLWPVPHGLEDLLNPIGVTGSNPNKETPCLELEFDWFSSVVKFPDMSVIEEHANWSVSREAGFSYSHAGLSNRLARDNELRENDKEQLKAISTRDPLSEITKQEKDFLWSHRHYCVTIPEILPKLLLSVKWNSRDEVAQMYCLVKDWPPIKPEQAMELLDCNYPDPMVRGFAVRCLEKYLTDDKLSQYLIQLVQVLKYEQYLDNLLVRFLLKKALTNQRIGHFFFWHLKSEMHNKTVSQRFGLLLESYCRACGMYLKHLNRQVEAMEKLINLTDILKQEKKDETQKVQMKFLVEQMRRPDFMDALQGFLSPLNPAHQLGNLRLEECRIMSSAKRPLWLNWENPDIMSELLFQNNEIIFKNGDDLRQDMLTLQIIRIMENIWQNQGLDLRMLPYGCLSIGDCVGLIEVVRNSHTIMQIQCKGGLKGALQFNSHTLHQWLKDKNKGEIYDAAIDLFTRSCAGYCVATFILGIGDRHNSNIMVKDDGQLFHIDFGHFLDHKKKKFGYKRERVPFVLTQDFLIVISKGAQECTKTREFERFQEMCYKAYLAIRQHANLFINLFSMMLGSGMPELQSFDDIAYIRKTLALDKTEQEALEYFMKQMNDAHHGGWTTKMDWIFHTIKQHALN
Sequence of Phosphatidylinositol 4,5-bisphosphate 3-kinase catalytic subunit alpha isoform (Homo sapiens), P42336 [I800L] (P42336 whole entry I800L, canonical isoform): as the sequence (P42336 whole entry E545K, canonical isoform) above, with K545E, I800L counted along it
Sequence of Ribosomal protein S6 kinase alpha-3 (P51812 whole entry): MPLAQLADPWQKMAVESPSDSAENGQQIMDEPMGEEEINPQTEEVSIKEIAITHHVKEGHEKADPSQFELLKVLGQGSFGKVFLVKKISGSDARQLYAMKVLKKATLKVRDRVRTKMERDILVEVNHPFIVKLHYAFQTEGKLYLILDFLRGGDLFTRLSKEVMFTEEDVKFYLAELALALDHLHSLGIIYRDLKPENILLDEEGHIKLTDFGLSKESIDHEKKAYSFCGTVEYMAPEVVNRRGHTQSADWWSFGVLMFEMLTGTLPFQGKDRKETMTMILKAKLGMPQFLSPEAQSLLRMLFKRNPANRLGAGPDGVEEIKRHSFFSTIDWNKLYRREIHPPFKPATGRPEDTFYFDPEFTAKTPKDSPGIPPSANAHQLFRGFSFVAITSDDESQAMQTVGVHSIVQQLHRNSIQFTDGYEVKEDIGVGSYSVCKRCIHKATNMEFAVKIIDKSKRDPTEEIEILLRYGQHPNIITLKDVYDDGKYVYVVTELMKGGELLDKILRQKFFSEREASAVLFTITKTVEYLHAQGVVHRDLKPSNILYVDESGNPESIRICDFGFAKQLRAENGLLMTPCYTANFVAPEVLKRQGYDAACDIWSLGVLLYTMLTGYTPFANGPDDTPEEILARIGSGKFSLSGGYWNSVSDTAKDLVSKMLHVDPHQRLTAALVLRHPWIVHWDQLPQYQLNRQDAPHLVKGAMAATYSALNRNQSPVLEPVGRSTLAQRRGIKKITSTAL
Sequence of Tyrosine-protein kinase Fyn (Homo sapiens) (P06241 2-537 limits assumed): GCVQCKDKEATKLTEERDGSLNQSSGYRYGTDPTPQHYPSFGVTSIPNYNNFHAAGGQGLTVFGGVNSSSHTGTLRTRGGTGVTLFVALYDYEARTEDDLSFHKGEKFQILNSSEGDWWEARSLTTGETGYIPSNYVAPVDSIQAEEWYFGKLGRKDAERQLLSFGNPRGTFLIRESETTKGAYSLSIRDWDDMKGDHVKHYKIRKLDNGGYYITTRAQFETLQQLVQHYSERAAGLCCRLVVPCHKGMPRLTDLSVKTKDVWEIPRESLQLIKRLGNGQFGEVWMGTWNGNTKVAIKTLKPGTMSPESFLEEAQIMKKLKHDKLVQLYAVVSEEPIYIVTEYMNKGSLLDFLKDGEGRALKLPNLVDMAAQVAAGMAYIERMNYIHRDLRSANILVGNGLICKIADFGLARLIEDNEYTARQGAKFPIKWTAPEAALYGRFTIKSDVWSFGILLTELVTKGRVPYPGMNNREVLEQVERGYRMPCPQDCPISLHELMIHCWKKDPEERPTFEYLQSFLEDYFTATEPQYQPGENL
Sequence of Transient receptor potential cation channel subfamily M member 6 (Homo sapiens) (Q9BX84 whole entry): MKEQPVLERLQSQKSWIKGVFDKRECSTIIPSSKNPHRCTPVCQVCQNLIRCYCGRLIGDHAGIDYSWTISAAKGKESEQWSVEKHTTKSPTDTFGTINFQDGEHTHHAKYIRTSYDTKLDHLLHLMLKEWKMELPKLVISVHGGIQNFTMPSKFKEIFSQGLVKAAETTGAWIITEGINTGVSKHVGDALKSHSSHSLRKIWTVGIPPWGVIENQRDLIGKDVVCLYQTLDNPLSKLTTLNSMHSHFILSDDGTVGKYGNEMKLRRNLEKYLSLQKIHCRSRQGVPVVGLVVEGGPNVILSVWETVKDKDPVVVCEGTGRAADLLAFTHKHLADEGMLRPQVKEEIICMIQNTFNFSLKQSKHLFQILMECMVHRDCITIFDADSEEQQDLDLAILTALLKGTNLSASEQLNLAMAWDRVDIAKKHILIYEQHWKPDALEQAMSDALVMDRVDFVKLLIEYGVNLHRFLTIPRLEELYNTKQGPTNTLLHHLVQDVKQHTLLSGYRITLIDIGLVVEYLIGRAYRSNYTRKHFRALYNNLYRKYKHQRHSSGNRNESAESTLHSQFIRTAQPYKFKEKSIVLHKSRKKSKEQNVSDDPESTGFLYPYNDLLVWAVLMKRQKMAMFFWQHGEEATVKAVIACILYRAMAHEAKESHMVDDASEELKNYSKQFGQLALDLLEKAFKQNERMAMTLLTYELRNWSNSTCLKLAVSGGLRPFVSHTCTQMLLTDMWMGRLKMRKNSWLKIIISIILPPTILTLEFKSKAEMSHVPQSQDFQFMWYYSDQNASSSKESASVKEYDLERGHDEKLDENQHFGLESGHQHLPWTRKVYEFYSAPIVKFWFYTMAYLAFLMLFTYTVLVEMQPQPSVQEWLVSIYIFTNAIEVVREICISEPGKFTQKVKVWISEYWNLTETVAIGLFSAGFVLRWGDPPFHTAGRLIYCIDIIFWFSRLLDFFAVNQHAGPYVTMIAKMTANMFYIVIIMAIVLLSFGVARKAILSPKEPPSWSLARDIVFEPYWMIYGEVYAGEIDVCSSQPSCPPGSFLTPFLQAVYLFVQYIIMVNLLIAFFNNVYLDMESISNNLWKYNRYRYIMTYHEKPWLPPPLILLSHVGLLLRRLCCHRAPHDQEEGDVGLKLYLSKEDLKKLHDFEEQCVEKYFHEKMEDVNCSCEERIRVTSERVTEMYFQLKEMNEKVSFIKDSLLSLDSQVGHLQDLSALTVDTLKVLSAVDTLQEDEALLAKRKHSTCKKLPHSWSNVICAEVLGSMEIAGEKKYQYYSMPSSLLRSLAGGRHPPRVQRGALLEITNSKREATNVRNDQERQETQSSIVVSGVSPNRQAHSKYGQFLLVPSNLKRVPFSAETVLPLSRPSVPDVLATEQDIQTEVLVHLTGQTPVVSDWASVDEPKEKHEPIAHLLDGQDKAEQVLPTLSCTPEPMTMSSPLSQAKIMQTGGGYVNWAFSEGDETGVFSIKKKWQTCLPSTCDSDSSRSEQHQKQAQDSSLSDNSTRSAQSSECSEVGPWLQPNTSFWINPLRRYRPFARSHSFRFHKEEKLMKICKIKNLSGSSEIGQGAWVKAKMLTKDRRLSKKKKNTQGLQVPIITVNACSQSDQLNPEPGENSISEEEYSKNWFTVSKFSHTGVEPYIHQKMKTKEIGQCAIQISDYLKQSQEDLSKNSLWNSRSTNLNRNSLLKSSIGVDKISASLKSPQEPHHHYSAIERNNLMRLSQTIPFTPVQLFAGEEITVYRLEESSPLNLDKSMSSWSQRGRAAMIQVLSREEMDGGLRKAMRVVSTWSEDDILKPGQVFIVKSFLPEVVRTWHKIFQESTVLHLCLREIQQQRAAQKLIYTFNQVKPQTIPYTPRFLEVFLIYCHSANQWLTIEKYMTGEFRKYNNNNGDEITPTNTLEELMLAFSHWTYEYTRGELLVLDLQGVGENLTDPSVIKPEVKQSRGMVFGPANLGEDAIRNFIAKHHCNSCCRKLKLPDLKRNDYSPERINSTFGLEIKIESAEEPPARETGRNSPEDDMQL

CC1=C(C#N)C(c2ccc3c(c2)c(NC(=O)c2ccccc2C)nn3C)C(C#N)=C(C)N1 [BAY-974]
inactive: [1] 80% | [2] 100% | [3] 89% | [4] 90% | [5] 93% | [6] 86% | [7] 91%

CCc1ccccc1C(=O)Nc1n[nH]c2c(C)c(F)c(C3C(C#N)=C(C)N(C)C(C)=C3C#N)cc12 [BAY-3827]
inactive: [2] 100% | [3] 100% | [4] 100% | [5] 100% | [7] 100%
active: [1] 38% | [6] 0.3%
